Like-named read-outs stand apart in the source and are kept apart here.
Assay: Example 18 cynomolgus monkey PK study (SC and IM)
Format: in vivo, cynomolgus monkeys
Text: Example 18 referenced herein was made in accordance with Synthesis B. Six male cynomolgus monkeys (+1 spare) were selected from the Testing Facility's colony of non-naïve animals. The animals were assigned to the study based on acceptable health as determined by a Testing Facility veterinarian. Six animals were selected and placed into two groups of three animals each. Fasting of the animals before or after dosing was not required.
[…] […] The animals were manually restrained for dosing and were not sedated. The dose sites were clipped of hair and wiped with alcohol before dosing. All dosing was performed as detailed in the study protocol and was completed without incident.
Blood samples were collected from the study animals as detailed in the sample collection Table 39 below.
Blood samples were collected by venipuncture of a cephalic vein. For PK, blood was transferred to a blood collection tube containing NaF/Na2EDTA anticoagulant, mixed by inversion, and maintained on wet ice until processing. The blood samples were centrifuged at 2200×g for 10 minutes at 5° C. to isolate plasma. The resulting plasma samples were transferred to individual polypropylene tubes in a 96-well plate format and immediately placed on dry ice until storage at nominally −20° C. prior to shipment for analysis.
The PK plasma samples were analyzed approximately every two weeks by the Testing Facility to determine the concentration of Example 18 (prodrug) and parent using an LC-MS/MS Research Grade Assay (RGA-1) with sensitivity to 0.1 ng/mL. Following interim review of sample analysis data, analysis for Example 18 (prodrug) was discontinued after the Day 57 sample collections. The bioanalytical report and sample concentration data are presented in Tables 40 and 41, and mean concentration-time profiles are shown in FIGS. 29 and 30

C#C[C@]1(COC(=O)CCCCCCCCC)O[C@@H](n2cnc3c(N)nc(F)nc32)C[C@@H]1OC(=O)CCCCCCCCC [Example 18, (2R,3S,5R)-5-(6-amino-2-fluoro-9H-purin-9-yl)-2-((decanoyloxy)methyl)-2-ethynyltetrahydrofuran-3-yl Decanoate]
Example 18 plasma concentrations (IM EFdA, Monkey 2001, 43 days): BQL (BQL—Below Quantitation Limit, <0.100 ng/mL)
Example 18 plasma concentrations (IM EFdA, Monkey 2001, 57 days): BQL (BQL—Below Quantitation Limit, <0.100 ng/mL)
EFdA plasma concentrations (IM EFdA, Monkey 2002, 0.021 days): BQL (BQL—Below Quantitation Limit, <0.100 ng/mL)
Example 18 plasma concentrations (IM EFdA, Monkey 2002, 36 days): BQL (BQL—Below Quantitation Limit, <0.100 ng/mL)
Example 18 plasma concentrations (IM EFdA, Monkey 2002, 39 days): BQL (BQL—Below Quantitation Limit, <0.100 ng/mL)
Example 18 plasma concentrations (IM EFdA, Monkey 2002, 46 days): BQL (BQL—Below Quantitation Limit, <0.100 ng/mL)
Example 18 plasma concentrations (IM EFdA, Monkey 2002, 50 days): BQL (BQL—Below Quantitation Limit, <0.100 ng/mL)
Example 18 plasma concentrations (IM EFdA, Monkey 2003, 29 days): BQL (BQL—Below Quantitation Limit, <0.100 ng/mL)
Example 18 plasma concentrations (IM EFdA, Monkey 2003, 53 days): BQL (BQL—Below Quantitation Limit, <0.100 ng/mL)
Example 18 plasma concentrations (IM equivalent of EFdA, Monkey 2001, 25 days): BQL (BQL—Below Quantitation Limit, <0.100 ng/mL)
Example 18 plasma concentrations (IM equivalent of EFdA, Monkey 2001, 32 days): BQL (BQL—Below Quantitation Limit, <0.100 ng/mL)
Example 18 plasma concentrations (IM equivalent of EFdA, Monkey 2001, 39 days): BQL (BQL—Below Quantitation Limit, <0.100 ng/mL)
Example 18 plasma concentrations (IM equivalent of EFdA, Monkey 2001, 53 days): BQL (BQL—Below Quantitation Limit, <0.100 ng/mL)
Example 18 plasma concentrations (IM equivalent of EFdA, Monkey 2002, 32 days): BQL (BQL—Below Quantitation Limit, <0.100 ng/mL)
Example 18 plasma concentrations (IM equivalent of EFdA, Monkey 2002, 57 days): BQL (BQL—Below Quantitation Limit, <0.100 ng/mL)
EFdA plasma concentrations (IM equivalent of EFdA, Monkey 2003, 0.021 days): BQL (BQL—Below Quantitation Limit, <0.100 ng/mL)
Example 18 plasma concentrations (IM equivalent of EFdA, Monkey 2003, 32 days): BQL (BQL—Below Quantitation Limit, <0.100 ng/mL)
Example 18 plasma concentrations (IM equivalent of EFdA, Monkey 2003, 39 days): BQL (BQL—Below Quantitation Limit, <0.100 ng/mL)
Example 18 plasma concentrations (IM equivalent of EFdA, Monkey 2003, 50 days): BQL (BQL—Below Quantitation Limit, <0.100 ng/mL)
Example 18 plasma concentrations (IM equivalent of EFdA, Monkey 2003, 57 days): BQL (BQL—Below Quantitation Limit, <0.100 ng/mL)
Example 18 plasma concentrations (IM, Monkey 2001, 36 days): BQL (BQL—Below Quantitation Limit, <0.100 ng/mL)
Example 18 plasma concentrations (IM, Monkey 2001, 46 days): BQL (BQL—Below Quantitation Limit, <0.100 ng/mL)
Example 18 plasma concentrations (IM, Monkey 2001, 50 days): BQL (BQL—Below Quantitation Limit, <0.100 ng/mL)
Example 18 plasma concentrations (IM, Monkey 2002, 43 days): BQL (BQL—Below Quantitation Limit, <0.100 ng/mL)
Example 18 plasma concentrations (IM, Monkey 2002, 53 days): BQL (BQL—Below Quantitation Limit, <0.100 ng/mL)
Example 18 plasma concentrations (IM, Monkey 2003, 36 days): BQL (BQL—Below Quantitation Limit, <0.100 ng/mL)
Example 18 plasma concentrations (IM, Monkey 2003, 43 days): BQL (BQL—Below Quantitation Limit, <0.100 ng/mL)
Example 18 plasma concentrations (SC EFdA, Monkey 1001, 22 days): BQL (BQL—Below Quantitation Limit, <0.100 ng/mL)
Example 18 plasma concentrations (SC EFdA, Monkey 1001, 29 days): BQL (BQL—Below Quantitation Limit, <0.100 ng/mL)
Example 18 plasma concentrations (SC EFdA, Monkey 1001, 43 days): BQL (BQL—Below Quantitation Limit, <0.100 ng/mL)
Example 18 plasma concentrations (SC EFdA, Monkey 1001, 46 days): BQL (BQL—Below Quantitation Limit, <0.100 ng/mL)
Example 18 plasma concentrations (SC EFdA, Monkey 1001, 53 days): BQL (BQL—Below Quantitation Limit, <0.100 ng/mL)
EFdA plasma concentrations (SC EFdA, Monkey 1002, 0.021 days): BQL (BQL—Below Quantitation Limit, <0.100 ng/mL)
Example 18 plasma concentrations (SC EFdA, Monkey 1002, 29 days): BQL (BQL—Below Quantitation Limit, <0.100 ng/mL)
Example 18 plasma concentrations (SC EFdA, Monkey 1002, 43 days): BQL (BQL—Below Quantitation Limit, <0.100 ng/mL)
Example 18 plasma concentrations (SC equivalent of EFdA, Monkey 1001, 8 days): BQL (BQL—Below Quantitation Limit, <0.100 ng/mL)
Example 18 plasma concentrations (SC equivalent of EFdA, Monkey 1001, 17 days): BQL (BQL—Below Quantitation Limit, <0.100 ng/mL)
Example 18 plasma concentrations (SC equivalent of EFdA, Monkey 1001, 19 days): BQL (BQL—Below Quantitation Limit, <0.100 ng/mL)
Example 18 plasma concentrations (SC equivalent of EFdA, Monkey 1001, 32 days): BQL (BQL—Below Quantitation Limit, <0.100 ng/mL)
Example 18 plasma concentrations (SC equivalent of EFdA, Monkey 1001, 36 days): BQL (BQL—Below Quantitation Limit, <0.100 ng/mL)
Example 18 plasma concentrations (SC equivalent of EFdA, Monkey 1001, 39 days): BQL (BQL—Below Quantitation Limit, <0.100 ng/mL)
Example 18 plasma concentrations (SC equivalent of EFdA, Monkey 1001, 50 days): BQL (BQL—Below Quantitation Limit, <0.100 ng/mL)
EFdA plasma concentrations (SC equivalent of EFdA, Monkey 1002, 0.042 days): BQL (BQL—Below Quantitation Limit, <0.100 ng/mL)
Example 18 plasma concentrations (SC equivalent of EFdA, Monkey 1002, 22 days): BQL (BQL—Below Quantitation Limit, <0.100 ng/mL)
Example 18 plasma concentrations (SC equivalent of EFdA, Monkey 1002, 32 days): BQL (BQL—Below Quantitation Limit, <0.100 ng/mL)
Example 18 plasma concentrations (SC equivalent of EFdA, Monkey 1002, 39 days): BQL (BQL—Below Quantitation Limit, <0.100 ng/mL)
Example 18 plasma concentrations (SC equivalent of EFdA, Monkey 1002, 50 days): BQL (BQL—Below Quantitation Limit, <0.100 ng/mL)
Example 18 plasma concentrations (SC equivalent of EFdA, Monkey 1002, 53 days): BQL (BQL—Below Quantitation Limit, <0.100 ng/mL)
Example 18 plasma concentrations (SC equivalent of EFdA, Monkey 1002, 57 days): BQL (BQL—Below Quantitation Limit, <0.100 ng/mL)
EFdA plasma concentrations (SC equivalent of EFdA, Monkey 1003, 0.021 days): BQL (BQL—Below Quantitation Limit, <0.100 ng/mL)
EFdA plasma concentrations (SC, Mean, 0.021 days): BQL (BQL—Below Quantitation Limit, <0.100 ng/mL)
Example 18 plasma concentrations (SC, Mean, 17 days): BQL (BQL—Below Quantitation Limit, <0.100 ng/mL)
EFdA plasma concentrations (SC, Monkey 1001, 0.021 days): BQL (BQL—Below Quantitation Limit, <0.100 ng/mL)
Example 18 plasma concentrations (SC, Monkey 1001, 25 days): BQL (BQL—Below Quantitation Limit, <0.100 ng/mL)
Example 18 plasma concentrations (SC, Monkey 1001, 57 days): BQL (BQL—Below Quantitation Limit, <0.100 ng/mL)
Example 18 plasma concentrations (SC, Monkey 1002, 17 days): BQL (BQL—Below Quantitation Limit, <0.100 ng/mL)
Example 18 plasma concentrations (SC, Monkey 1002, 19 days): BQL (BQL—Below Quantitation Limit, <0.100 ng/mL)
Example 18 plasma concentrations (SC, Monkey 1002, 25 days): BQL (BQL—Below Quantitation Limit, <0.100 ng/mL)
Example 18 plasma concentrations (SC, Monkey 1002, 36 days): BQL (BQL—Below Quantitation Limit, <0.100 ng/mL)
Example 18 plasma concentrations (SC, Monkey 1002, 46 days): BQL (BQL—Below Quantitation Limit, <0.100 ng/mL)
EFdA plasma concentrations (SC, Monkey 1003, 0.042 days): BQL (BQL—Below Quantitation Limit, <0.100 ng/mL)
Clinical observations and dose site reactions (cynomolgus monkey, single SC or IM injection, 5 mg parent/kg): All animals appeared normal at the time of each observation and no dose site reactions were observed
concentration at 0.021 days (male, cynomolgus monkey, plasma, intramuscular, 20 mg/kg equivalent of EFdA, IM 20 mg/kg equivalent of EFdA, Mean, 0.021 days, read-out: Example 18 plasma concentrations): 11.9 ng/mL
concentration at 0.042 days (male, cynomolgus monkey, plasma, intramuscular, 20 mg/kg equivalent of EFdA, IM 20 mg/kg equivalent of EFdA, Mean, 0.042 days, read-out: Example 18 plasma concentrations): 15 ng/mL
concentration at 0.125 days (male, cynomolgus monkey, plasma, intramuscular, 20 mg/kg equivalent of EFdA, IM 20 mg/kg equivalent of EFdA, Mean, read-out: Example 18 plasma concentrations): 28.5 ng/mL
concentration at 0.208 days (male, cynomolgus monkey, plasma, intramuscular, 20 mg/kg equivalent of EFdA, IM 20 mg/kg equivalent of EFdA, Mean, 0.208 days, read-out: Example 18 plasma concentrations): 28.3 ng/mL
concentration at 0.292 days (male, cynomolgus monkey, plasma, intramuscular, 20 mg/kg equivalent of EFdA, IM 20 mg/kg equivalent of EFdA, Mean, 0.292 days, read-out: Example 18 plasma concentrations): 18.3 ng/mL
concentration at 1 days (male, cynomolgus monkey, plasma, intramuscular, 20 mg/kg equivalent of EFdA, IM 20 mg/kg equivalent of EFdA, Mean, 1 days, read-out: Example 18 plasma concentrations): 4.49 ng/mL
concentration at 2 days (male, cynomolgus monkey, plasma, intramuscular, 20 mg/kg equivalent of EFdA, IM 20 mg/kg equivalent of EFdA, Mean, 2 days, read-out: Example 18 plasma concentrations): 0.52 ng/mL
concentration at 3 days (male, cynomolgus monkey, plasma, intramuscular, 20 mg/kg equivalent of EFdA, IM 20 mg/kg equivalent of EFdA, Mean, 3 days, read-out: Example 18 plasma concentrations): 0.505 ng/mL
concentration at 8 days (male, cynomolgus monkey, plasma, intramuscular, 20 mg/kg equivalent of EFdA, IM 20 mg/kg equivalent of EFdA, Mean, 8 days, read-out: Example 18 plasma concentrations): 0.187 ng/mL
concentration at 10 days (male, cynomolgus monkey, plasma, intramuscular, 20 mg/kg equivalent of EFdA, IM 20 mg/kg equivalent of EFdA, Mean, 10 days, read-out: Example 18 plasma concentrations): 0.173 ng/mL
concentration at 17 days (male, cynomolgus monkey, plasma, intramuscular, 20 mg/kg equivalent of EFdA, IM 20 mg/kg equivalent of EFdA, Mean, 17 days, read-out: Example 18 plasma concentrations): 0.145 ng/mL
concentration at 19 days (male, cynomolgus monkey, plasma, intramuscular, 20 mg/kg equivalent of EFdA, IM 20 mg/kg equivalent of EFdA, Mean, 19 days, read-out: Example 18 plasma concentrations): 0.124 ng/mL
concentration at 22 days (male, cynomolgus monkey, plasma, intramuscular, 20 mg/kg equivalent of EFdA, IM 20 mg/kg equivalent of EFdA, Mean, 22 days, read-out: Example 18 plasma concentrations): 0.13 ng/mL
concentration at 25 days (male, cynomolgus monkey, plasma, intramuscular, 20 mg/kg equivalent of EFdA, IM 20 mg/kg equivalent of EFdA, Mean, 25 days, read-out: Example 18 plasma concentrations): 0.151 ng/mL
concentration at 0.021 days (male, cynomolgus monkey, plasma, intramuscular, 20 mg/kg equivalent of EFdA, IM 20 mg/kg equivalent of EFdA, Monkey 2001, 0.021 days, read-out: Example 18 plasma concentrations): 21.8 ng/mL
concentration at 0.042 days (male, cynomolgus monkey, plasma, intramuscular, 20 mg/kg equivalent of EFdA, IM 20 mg/kg equivalent of EFdA, Monkey 2001, 0.042 days, read-out: Example 18 plasma concentrations): 29.2 ng/mL
concentration at 0.125 days (male, cynomolgus monkey, plasma, intramuscular, 20 mg/kg equivalent of EFdA, IM 20 mg/kg equivalent of EFdA, Monkey 2001, read-out: Example 18 plasma concentrations): 53.7 ng/mL

— patent publication US12240853B2, “Compounds useful in HIV therapy” (GlaxoSmithKline Intellectual Property (No.2) Limited, priority 2019, dated 2025)
